We go through two substances from paper PMC4884539 (Journal of molecular biology, 2016).

The conditions of the series: pH 7.4.

Take “Ac- MNWESkGEwlRMRYGtmLSNGnM- NH2 [Design P2]”: the “Solubility (in words)” value is on record as “less soluble”.
For the substance Ac- RGEaWmYlKNNLSETmMsNmWGR- NH2 [AP6], the “Solubility (in words)” value is given as “less soluble”.
